Test results as given in US6600057B2, “Matrix metalloproteinase inhibitors” (Kimberly-Clark Worldwide, Inc., priority 2000, dated 2003).

Biological target: MMP-9 (Homo sapiens, UniProt P14780)
Assay: Fluorometric assay of MMP-9 inhibition (cleavage of a fluorogenic peptide substrate)
Type: biochemical
Conditions: incubated 30 minutes at room temperature
Description: The second assay utilized the technique of fluorescence resonance energy transfer (FRET). The substrate peptide (Calbiochem) comprised seven amino acids coupled to a carboxyl terminal dinitrophenyl acceptor, and an amino terminal 2-aminobenzo-anthraniloyl (Abz) moiety donor. Cleavage of this substrate by MMP-9 results in the liberation of a fluorescent product (365 nm excitation, 450 nm emission). […] MMP at a concentration of 0.5 μM was mixed with varying amounts of compound and incubated at 25° C. for 10 minutes in order to effect binding. The protein mixture was added to the peptide substrate, and was quickly mixed. Fluorescence intensity as a function of time was measured with a Dynex MFX fluorescence microtiter plate reader. Fluorescence intensity was related back to moles of peptide cleaved by producing a standard curve with an Abz containing non-FRET peptide. Inhibitory constants were derived from the curves as above. (Segel, IH. (1993) Enzyme Kinetics: Behavior and analysis of rapid equilibrium and steady-state enzyme systems. Wiley Classics Library, John Wiley and Sons, Inc. New York.)
The inhibition of MMP-9 by AQCA was measured by fluorometric assay. The fluorometric assay measures the cleavage of a fluorogenic peptide substrate (excitation wavelength 355 nm, emission wavelength 455 nm). MMP-9 is incubated with 0 mM AQCA (open circles), 1 mM AQCA (closed circles); or 2 mM AQCA (closed squares) for 30 minutes at room temperature. Fluorescence is measured at the times (in minutes) indicated.
Inhibition of MMP-9. Fluorometric assay which measures the cleavage of a fluorogenic peptide substrate (excitation wavelength 355 nm, emission wavelength 455 nm). […] Fluorescence is measured at the times (in minutes) indicated.
The inhibition of MMP-9 by anthraquinyl-mercaptoethylamine was measured by fluorometric assay. […] Fluorescence is measured at the times (in minutes) indicated.
The inhibition of MMP-9 by anthraquinyl alanine hyroxamate was measured by fluorometric assay. […] Fluorescence is measured at the times (in minutes) indicated.

[1] = 0.25 mM compound, FIG. 3 and FIG. 4

MMP-9, sequence (P14780 94-707, species assumed): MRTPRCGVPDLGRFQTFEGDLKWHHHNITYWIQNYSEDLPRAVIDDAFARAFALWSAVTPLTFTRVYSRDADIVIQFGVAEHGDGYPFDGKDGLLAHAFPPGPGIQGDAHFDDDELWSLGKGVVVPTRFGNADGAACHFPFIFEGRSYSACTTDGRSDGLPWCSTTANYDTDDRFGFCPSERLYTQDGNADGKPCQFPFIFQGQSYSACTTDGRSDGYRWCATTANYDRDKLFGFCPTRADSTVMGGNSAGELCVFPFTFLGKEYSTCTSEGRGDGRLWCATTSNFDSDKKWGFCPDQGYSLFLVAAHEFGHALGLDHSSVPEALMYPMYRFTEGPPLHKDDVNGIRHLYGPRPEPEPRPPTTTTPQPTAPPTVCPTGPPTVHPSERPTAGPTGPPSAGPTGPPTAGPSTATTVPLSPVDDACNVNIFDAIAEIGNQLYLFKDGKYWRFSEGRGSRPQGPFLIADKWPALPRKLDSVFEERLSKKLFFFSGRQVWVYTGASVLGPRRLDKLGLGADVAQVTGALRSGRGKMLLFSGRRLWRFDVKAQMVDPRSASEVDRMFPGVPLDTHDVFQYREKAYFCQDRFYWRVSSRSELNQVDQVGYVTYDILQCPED

Structure (SMILES)	inhibition of the enzymatic activity of MMP-9 [1]	inhibition of the enzymatic activity of MMP-9 (1 mM or 2 mM AQCA, FIG. 2)
CC(NC(=O)c1cc(O)c2c(c1)C(=O)c1cccc(O)c1C2=O)C(=O)NO (stereo not drawn) [anthraquinyl alanine hyroxamate, anthraquinyl-alanine hydroxamate]	inhibited the enzymatic activity of MMP-9	–
O=C(NCCS)c1cc(O)c2c(c1)C(=O)c1cccc(O)c1C2=O [anthraquinyl mercaptoethylamine, anthraquinyl-mercaptoethyamine]	inhibited the enzymatic activity of MMP-9	–
O=C(O)c1cc(O)c2c(c1)C(=O)c1cccc(O)c1C2=O [AQCA, 4,5-dihydroxyanthaquinone-2-carboxylic acid]	–	inhibited the enzymatic activity of MMP-9 in a dose dependent manner
